Test results: US20250136594A1 (Tango Therapeutics, Inc., priority 2022, published 2025)
Like-named read-outs stand apart in the source and are kept apart here.

Tests used:
[1] = test system: HAP1 MTAP-deleted cell line; assay: Viability assay, HAP1 MTAP-deleted cell line; type: cell-based; settings: Homo sapiens
[2] = test system: SDMA in HAP1 MTAP-deleted (MTAP-null) cell line (PRMT5 inhibition); assay: SDMA in-cell western assay, HAP1 MTAP-deleted cell line; settings: for IC50 / IC90: Homo sapiens; for IC50: HAP1, read-out: Hap1 MTAP deleted IC50; for IC90: HAP1, read-out: Hap1 MTAP deleted IC90; for Hap1 MTAP intact/deleted ratio: ratio of SDMA IC50 in HAP1 MTAP-intact to HAP1 MTAP-deleted cell line
[3] = test system: SDMA in HAP1 MTAP-intact cell line (PRMT5 inhibition); assay: SDMA in-cell western assay, HAP1 MTAP-intact cell line; settings: Homo sapiens, HAP1, read-out: Hap1 MTAP intact IC50
[4] = viability assay, HAP1 MTAP-deleted cell line, read-out: Hap1 MTAP deleted viability IC50

Row | IC50 [2] [µM] | IC90 [2] [µM] | IC50 [3] [µM] | SMILES | IC50 [1, 4] [µM] | Hap1 MTAP intact/deleted ratio [2] | IC50 ([1]; HAP1, read-out: Hap1 MTAP deleted viability IC50) [µM]
1 | < 0.005 | < 0.075 | 0.005 to 0.05 | Nc1ncc(NC(=O)C(=O)N(Cc2ccccn2)Cc2ccc(F)cc2Cl)c2[nH]ncc12 [Compound 77, N-(4-amino-1H-pyrazolo[4,3-c]pyridin-7-yl)-N′-[(2-chloro-4-fluoro-phenyl)methyl]-N′-(2-pyridylmethyl)oxamide] | < 0.1 | B (IC50 ratio greater than or equal to 15 fold but lower than 30 fold) | –
2 | < 0.005 | < 0.075 | > 0.05 | Nc1ncc(NC(=O)C(=O)N(Cc2ccccc2)Cc2ccccc2)c2[nH]ncc12 [Compound 21, N-(4-amino-1H-pyrazolo[4,3-c]pyridin-7-yl)-N′,N′-dibenzyl-oxamide] | – | – | < 0.1
3 | < 0.005 | < 0.075 | 0.005 to 0.05 | CC[C@H](C)CN(Cc1ccccc1C)C(=O)C(=O)Nc1cnc(N)c2cn[nH]c12 [Compound 60, (S)—N^1-(4-amino-1H-pyrazolo[4,3-c]pyridin-7-yl)-N^2-(2-methylbenzyl)-N^2-(2-methylbutyl)oxalamide] | < 0.1 | A (IC50 ratio greater than or equal to 30 fold) | –
4 | < 0.005 | 0.075 to 0.125 | > 0.05 | Nc1ncc(NC(=O)C(=O)N(Cc2ccc(C(F)(F)F)cc2)C2CCC2)c2[nH]ncc12 [Compound 118] | < 0.1 | B (IC50 ratio greater than or equal to 15 fold but lower than 30 fold) | –
5 | 0.005 to 0.05 | > 0.125 | > 0.05 | COc1ncc(NC(=O)C(=O)N(Cc2ccc(C(F)(F)F)cn2)[C@@H]2CCC[C@H]2OC(F)F)cc1C(N)=O [Compound 32, N1-(5-carbamoyl-6-methoxypyridin-3-yl)-N^2-((1R,2R)-2-(difluoromethoxy)cyclopentyl)-N^2-((5-(trifluoromethyl)pyridin-2-yl)methyl)oxalamide] | 0.1 to 1 | A (IC50 ratio greater than or equal to 30 fold) | –
6 | < 0.005 | > 0.125 | > 0.05 | CCN(Cc1ccc(F)cc1C)C(=O)C(=O)Nc1cnc(N)c2cn[nH]c12 [Compound 166, N-(4-amino-1H-pyrazolo[4,3-c]pyridin-7-yl)-N′-ethyl-N′-[(4-fluoro-2-methyl-phenyl)methyl]oxamide] | < 0.1 | A (IC50 ratio greater than or equal to 30 fold) | –
7 | < 0.005 | < 0.075 | > 0.05 | Nc1ncc(NC(=O)C(=O)N(Cc2ccccc2)Cc2cccnc2)c2[nH]ncc12 [Compound 29, N-(4-amino-1H-pyrazolo[4,3-c]pyridin-7-yl)-N′-benzyl-N′-(3-pyridylmethyl)oxamide] | < 0.1 | A (IC50 ratio greater than or equal to 30 fold) | –
8 | < 0.005 | < 0.075 | > 0.05 | CCN(C(=O)C(=O)Nc1cnc(N)c2cn[nH]c12)C(C)c1ccc(C(F)(F)F)cc1 (stereo not shown) [Compound 58, N-(4-amino-1H-pyrazolo[4,3-c]pyridin-7-yl)-N′-ethyl-N′-[1-[4-(trifluoromethyl)phenyl]ethyl]oxamide] | < 0.1 | B (IC50 ratio greater than or equal to 15 fold but lower than 30 fold) | –
9 | < 0.005 | < 0.075 | > 0.05 | Nc1ncc(NC(=O)C(=O)N(Cc2ccccc2)Cc2ccccn2)c2[nH]ncc12 [Compound 9, N-(4-amino-1H-pyrazolo[4,3-c]pyridin-7-yl)-N′-benzyl-N′-(2-pyridylmethyl)oxamide] | < 0.1 | A (IC50 ratio greater than or equal to 30 fold) | –
10 | 0.005 to 0.05 | < 0.075 | > 0.05 | CCN(Cc1ccc(C(F)(F)F)cn1)C(=O)C(=O)Nc1cnc(N)c2cn[nH]c12 [Compound 11, N-(4-amino-1H-pyrazolo[4,3-c]pyridin-7-yl)-N′-ethyl-N′-[[5-(trifluoromethyl)-2-pyridyl]methyl]oxamide] | < 0.1 | A (IC50 ratio greater than or equal to 30 fold) | –
11 | 0.005 to 0.05 | < 0.075 | 0.005 to 0.05 | CC1CCC(N(Cc2ccc(C(F)(F)F)cn2)C(=O)C(=O)Nc2cnc(N)c3cn[nH]c23)c2ccccc21 (stereo not shown) [Compound 3, N1-(4-amino-1H-pyrazolo[4,3-c]pyridin-7-yl)-N^2-(4-methyl-1,2,3,4-tetrahydronaphthalen-1-yl)-N^2-((5-(trifluoromethyl)pyridin-2-yl)methyl)oxalamide] | < 0.1 | C (IC50 ratio of less than 15 fold) | –
12 | < 0.005 | < 0.075 | > 0.05 | Cc1cc(C(F)(F)F)ccc1CN(C)C(=O)C(=O)Nc1cnc(N)c2cn[nH]c12 [Compound 170, N-(4-Amino-1H-pyrazolo[4,3-c]pyridin-7-yl)-N′-methyl-N′-[[2-methyl-4-(trifluoromethyl)phenyl]methyl]oxamide] | < 0.1 | A (IC50 ratio greater than or equal to 30 fold) | –
13 | < 0.005 | < 0.075 | 0.005 to 0.05 | Nc1ncc(NC(=O)C(=O)N(Cc2ccc(C(F)(F)F)cn2)Cc2ncccn2)c2[nH]ncc12 [Compound 25, N-(4-amino-1H-pyrazolo[4,3-c]pyridin-7-yl)-N′-(pyrimidin-2-ylmethyl)-N′-[[5-(trifluoromethyl)-2-pyridyl]methyl]oxamide] | < 0.1 | B (IC50 ratio greater than or equal to 15 fold but lower than 30 fold) | –
14 | 0.005 to 0.05 | > 0.125 | 0.005 to 0.05 | Cc1cc(NC(=O)C(=O)N(Cc2ccc(C(F)(F)F)cn2)C(C)c2ncccn2)cnc1N (racemic) [Compound 16, N-(6-amino-5-methyl-3-pyridyl)-N′-(1-pyrimidin-2-ylethyl)-N′-[[5-(trifluoromethyl)-2-pyridyl]methyl]oxamide] | 0.1 to 1 | C (IC50 ratio of less than 15 fold) | –
15 | < 0.005 | < 0.075 | > 0.05 | CC[C@H](C)CN(Cc1ccccn1)C(=O)C(=O)Nc1cnc(N)c2cn[nH]c12 [Compound 128, (S)—N^1-(4-amino-1H-pyrazolo[4,3-c]pyridin-7-yl)-N^2-(2-methylbutyl)-N^2-(pyridin-2-ylmethyl)oxalamide] | < 0.1 | A (IC50 ratio greater than or equal to 30 fold) | –
16 | < 0.005 | < 0.075 | 0.005 to 0.05 | CNc1cccc(CN(Cc2ccccc2)C(=O)C(=O)Nc2cnc(N)c3cn[nH]c23)c1 [Compound 93, N-(4-amino-1H-pyrazolo[4,3-c]pyridin-7-yl)-N′-benzyl-N′-[[3-(methylamino)phenyl]methyl]oxamide] | < 0.1 | B (IC50 ratio greater than or equal to 15 fold but lower than 30 fold) | –
17 | < 0.005 | < 0.075 | 0.005 to 0.05 | CC(c1ccc(C(F)(F)F)cc1)N(C(=O)C(=O)Nc1cnc(N)c2cn[nH]c12)C1CCC1 (stereo not shown) [Compound 192, N-(4-Amino-1H-pyrazolo[4,3-c]pyridin-7-yl)-N′-cyclobutyl-N′-[1-[4-(trifluoromethyl)phenyl]ethyl]oxamide] | < 0.1 | B (IC50 ratio greater than or equal to 15 fold but lower than 30 fold) | –
18 | 0.005 to 0.05 | > 0.125 | > 0.05 | C[C@@H](c1ccc(C(F)(F)C(F)(F)F)cc1)N(C)C(=O)C(=O)Nc1cnc(N)c2cn[nH]c12 [Compound 131, N-(4-amino-1H-pyrazolo[4,3-c]pyridin-7-yl)-N′-methyl-N′—[(1S)-1-[4-(1,1,2,2,2-pentafluoroethyl)phenyl]ethyl]oxamide] | < 0.1 | A (IC50 ratio greater than or equal to 30 fold) | –
19 | 0.005 to 0.05 | > 0.125 | > 0.05 | CC(CN(Cc1ccc(C(F)(F)F)cn1)C(=O)C(=O)Nc1cnc(N)c(C2CC2)c1)C1CC1 (stereo not shown) [Compound 13, N-(6-amino-5-cyclopropyl-3-pyridyl)-N′-(2-cyclopropylpropyl)-N′-[[5-(trifluoromethyl)-2-pyridyl]methyl]oxamide] | 0.1 to 1 | A (IC50 ratio greater than or equal to 30 fold) | –
20 | < 0.005 | < 0.075 | 0.005 to 0.05 | Nc1ncc(NC(=O)C(=O)N(Cc2ccccc2)Cc2ccc(C(F)(F)F)cn2)c2[nH]ncc12 [Compound 108, N-(4-amino-1H-pyrazolo[4,3-c]pyridin-7-yl)-N′-benzyl-N′-[[5-(trifluoromethyl)-2-pyridyl]methyl]oxamide] | < 0.1 | B (IC50 ratio greater than or equal to 15 fold but lower than 30 fold) | –
21 | 0.005 to 0.05 | > 0.125 | > 0.05 | CCN(C(=O)C(=O)Nc1cnc(N)c2cn[nH]c12)[C@@H](C)c1ccc(C(F)(F)C(F)(F)F)cc1F [Compound 134, N-(4-Amino-1H-pyrazolo[4,3-c]pyridin-7-yl)-N′-ethyl-N′—[(1S)-1-[2-fluoro-4-(1,1,2,2,2-pentafluoroethyl)phenyl]ethyl]oxamide] | 0.1 to 1 | A (IC50 ratio greater than or equal to 30 fold) | –
22 | 0.005 to 0.05 | < 0.075 | > 0.05 | CCN(C(=O)C(=O)Nc1cnc(N)c2cn[nH]c12)[C@@H](C)c1ccc(C(F)(F)C(F)(F)F)cc1C [Compound 69, (S)—N^1-(4-amino-1H-pyrazolo[4,3-c]pyridin-7-yl)-N^2-ethyl-N^2-(1-(2-methyl-4-(perfluoroethyl)phenyl)ethyl)oxalamide] | < 0.1 | B (IC50 ratio greater than or equal to 15 fold but lower than 30 fold) | –
